pIC50: −log10 of the molar value.
How the values were obtained:
[1] = test system: 3,4-diaminopyridine-induced rhythmic contractions of left coronary artery ring segments; assay: Inhibition of 3,4-diaminopyridine-induced rhythmic contractions (frequency) in isolated coronary artery rings; design: species or system Mongrel dogs; conditions: Canis lupus familiaris; isolated dog coronary artery rings; 3,4-diaminopyridine 10 mM; 37° C.; read-out: IC50, inhibitory effect on the frequency of 3,4-diaminopyridine-induced rhythmic contractions
Method: (§1) The compounds, when given intravenously, reduced the blood pressure and increased the coronary blood flow in the dose range of 1 to 1,000 μg/kg and, when administered into the coronary artery, they dilated the coronary artery in the dose range of 0.3 to 100 μg.
(1) Effects on 3,4-diaminopyridine-induced rhythmic contractions
The method of Uchida and Sugimoto (Myakkangaku, 24, 133-143, 1984) was used. Mongrel dogs of either sex were anesthetized with pentobarbital (30 mg/kg i.v.) and bled to death and, then, the heart was excised from each animal. In the Krebs-Henseleit solution, the left coronary circumflex branch or the anterior descending branch was isolated and cut into rings, about 2 mm in width. The ring segment was fixed to a stainless steel hook and suspended in a Krebs-Henseleit bath (37° C.) aerated with 95%O2 -5%CO2 gas mixture under a tension load of 1.0 g, and isometric contractions were recorded.
After the specimen was stabilized for 30 minutes, rhythmic contractions were induced by addition of 3,4-diaminopyridine (10 mM). When the amplitude and frequency of rhythmic contractions became substantially steady, cumulative addition of the test compound to the organ bath was started. The concentration-response curves for the amplitude and frequency of contractions were constructed and the efficacy was evaluated.
The inhibitory effect on the frequency of contractions is shown in Column (1) in Table 1.

[2] = test system: cardiovascular system (mean blood pressure, coronary blood flow); assay: Effects on the cardiovascular system in anesthetized dogs (i.v.); assay type: in vivo, Mongrel dogs
Method: as §1
(2) Effects on the cardiovascular system
Mongrel dogs of either sex were anesthetized with pentobarbital, 30 mg/kg i.v. and, after tracheal intubation, the experiment was performed under artificial respiration. After thoracotomy, heart rate, blood pressure, left ventricular pressure, max dLVP/dt, pulmonary arterial pressure, central venous pressure, cardiac output and coronary blood flow were measured. The test compound was administered through a cannula indwelt in the femoral vein and the efficacy was evaluated.
(3) Coronary vasodilating effect

[3] = Acute toxic effect (LD50), intravenous; conditions: mouse, in vivo, i.v. (caudal vein), male mice, up and down method, read-out: LD50, acute toxic dose
Method: (§2) Then, in connection with Examples 1 and 2, the hypotensive effect of the test compound given orally in conscious spontaneously hypertensive rats (SHR) and the intravenous acute toxicity in mice were determined.
The acute toxic dose (LD50) of the test compound administered into the caudal vein was determined by the up and down method in male mice.

[4] = test system: spontaneously hypertensive rats (SHR); assay: Hypotensive effect, oral, in conscious spontaneously hypertensive rats (SHR); assay type: in vivo, Spontaneously hypertensive rats (SHR) of Okamoto-Aoki strain
Method: as §2
Spontaneously hypertensive rats (SHR) of Okamoto-Aoki strain were anesthetized with pentobarbital, 60 mg/kg i.p. Then, a cannula for blood pressure measurement was indwelt in the left common carotid artery and the other end of the cannula was led out extracorporeally from the posterior neck. After a stabilization period of 4-5 postoperative days, the blood pressure and heart rate were measured without restraint under no anesthesia. The test compound was suspended in 0.5% methylcellulose solution and the suspension was orally administered in a volume of 5 ml/kg and the efficacy was evaluated.

Row | Compound | pIC50 [1] | MBP: mean blood pressure-lowering effect (percent reduction) ([2]; 3 μg/kg i.v.) | MBP: mean blood pressure-lowering effect (percent reduction) ([2]; 10 μg/kg i.v.) | LD50 [3] | MBP: mean blood pressure-lowering effect ([4]; 300 μg/kg p.o.) | MBP: mean blood pressure-lowering effect ([4]; 30 μg/kg p.o.)
1 | CC1(C)CN(N2CCCC2=O)c2cc([N+](=O)[O-])ccc2O1 [41(4), 3,4-dihydro-2,2-dimethyl-4-(2-oxo-1-pyrrolidinyl)-6-nitro-2H-1,4-benzoxazine] | 7.30 | -20 Δ% |  |  |  | 
2 | CC1(C)Oc2ccc(C#N)cc2C(N2CCCC2=O)C1O (centres unmarked) [Cromakalim, reference compound] | 6.41 |  | -28 Δ% | 49.7 mg/kg | -35 Δ% | 
3 | CC1(C)CN(c2cccc[n+]2[O-])c2cc([N+](=O)[O-])ccc2O1 [Example 1, 2-(3,4-dihydro-2,2-dimethyl-6-nitro-2H-1,4-benzoxazin-4-yl)pyridine N-oxide] | 8.00 | -16 Δ% |  | 50.4 mg/kg |  | -25 Δ%
4 | CC1(C)CN(c2cccc[n+]2[O-])c2cc(C#N)ccc2O1 [Example 2, 2-(6-cyano-3,4-dihydro-2,2-dimethyl-2H-1,4-benzoxazin-4-yl)pyridine N-oxide] | 6.62 |  | -20 Δ% | > 60 mg/kg | -40 Δ% | 
5 | CC(=O)CN1CC(C)(C)Oc2ccc([N+](=O)[O-])cc21 [Example 38, 4-Acetonyl-3,4-dihydro-2,2-dimethyl-6-nitro-2H-1,4-benzoxazine] | 7.15 |  | -23 Δ% |  |  | 
6 | CN(C)C(=O)CN1CC(C)(C)Oc2ccc([N+](=O)[O-])cc21 [Example 56, 2-(3,4-dihydro-2,2-dimethyl-6-nitro-2H-1,4-benzoxazin-4-yl)-N,N-dimethylacetamide] | 7.70 | -11 Δ% |  |  |  | 
7 | CC1(C)CN(C2=CCCC2=O)c2cc([N+](=O)[O-])ccc2O1 [Example 70, 3,4-Dihydro-2,21-dimethyl-6-nitro-4-(5-oxo-1-cyclopenten-1-yl) -2H-1,4-benzoxazine] | 8.00 |  | -9 Δ% |  |  | 

Reference: patent publication US5420126A, “3,4-dihydro-2H-1,4-benzoxazine derivatives and pharmaceutical compositions containing the same” (Yamanouchi Pharmaceutical Co., Ltd., priority 1989, dated 1995)
